# Patent US10494333B2, “Compound having BLT inhibitory activity and composition, for preventing or treating inflammatory diseases, comprising same as active ingredient” (DONGGUK UNIVERSITY INDUSTRY-ACADEMIC COOPERATION FOUNDATION, priority 2015, dated 2019)
# How the values were obtained:
# [1] = system: ovarian cancer cells (SKOV-3 cells); test: Death of anticancer agent-resistant ovarian cancer cells on co-treatment with cisplatin (MTT); format: cell-based; details: 10 μM pre-treated 30 minutes, cisplatin 50 μM, 24 hours, LY255283 compared to cisplatin alone, AC compounds compared with LY255283 co-treatment
# Experimental: The death of cancer cells was detected using a 3-(4,5-dimethylthiazol-2-yl)-2,5-diphenyltetrazolium bromide (MTT) method. More specifically, 1×10^5 of the ovarian cancer cells (SKOV-3 cells) resistant to the anti-cancer agents were dispensed on a 12-well culture dish, and cultured for 24 hours. A 0.5% serum RPMI medium was pre-treated with each of the compound prepared in one of the examples (10 μM), 10 μM of DMSO (compound solvent) as a control, and 10 μM of LY255283 as a positive control for 30 minutes. Afterward, 50 μM of an anti-cancer agent, cisplatin, was treated, and then the cells were cultured 24 hours. A 20 μL of an MTT solution (5 mg/mL, Sigma-Aldrich) was added to each well, and the cells were cultured in a humid CO2 incubator at 37° C. for 4 hours. Afterward, the supernatant was removed, and 500 µL of DMSO was added to each well to dissolve insoluble violet formazan crystals. Absorbance was measured using a microplate reader (Molecular Devices, Sunnyvale, Calif.) at 550 nm, and the measurement was repeated three times.
# [2] = system: BLT2-expressing cells (CHO-BLT2 cells); test: LPA-induced chemotactic motility of CHO-BLT2 cells (Transwell); format: cell-based; details: LPA 100 nM
# Experimental: Chemotactic motility was analyzed using a Transwell chamber including a polycarbonate filter (8-μm pore size, Corning Costar) with a 6.5-mm diameter. […] To evaluate the effect of inhibitors, the cells were pre-treated with each inhibitor for 30 minutes before dispensing. After the cells were cultured at 37° C. in 5% CO2 for 3 hours, the filters were fixed with methanol for 3 minutes, and stained with hematoxylin and eosin for 10 minutes. […] The chemotactic motility was quantitatively analyzed by counting the cells on the lower side of the filter under an optical microscope (magnification, 200×). For each analysis, 6 fields were subjected to counting, each sample was analyzed twice, and the analysis was repeated three times.
# asthma-induced mice = test: Airway hyperresponsiveness (AHR) in OVA asthma-induced mice; format: in vivo
# Description: (§1) Mast cells play a pivotal role in the initial reaction to asthma, and when an allergen enters the body from the outside through an airway, the mast cells are activated, thereby secreting various cytokines (interleukin-4 and interleukin-13). Due to the cytokines, the influx of inflammatory cells, and the generation of mucus and the airway contraction occur. The inventors used 7-week-old (18 to 20 g) female BALB/c mice provided by Orient (Seoungnam, Korea) for the experiment to confirm the anti-asthma effect, and asthma was induced in the mice. On day 1 and day 14, 2.5 mg of an adjuvant aluminum hydroxide gel (alum; Pierce, Rockford, Ill.) containing a […] of ovalbumin (OVA) was injected intraperitoneally to sensitize the female […] mice. After the two initial sensitizations, on day 21, day 22 and day 23, 1% OVA was sprayed into the mice using an ultrasonic nebulizer. […] After the initial sensitizations, on day 24, AHR was detected, and on day 25, the mice were dissected to observe asthma phenotypes such as the expression of an inflammatory cytokine IL-4, and the influx of the inflammatory cells (neutrophils). In addition, the AHR detection was performed after an airway constrictor methacholine (6.25 to 50 mg/ml depending on conditions) was administered to the mice. The administration of the airway constrictor was performed by spraying through an inlet of the chamber using an ultrasonic nebulizer for 3 minutes. The AHR was analyzed using an enhanced pause as the indicator of the asthma phenomenon.
# BLT2 [3] = biological target: T1, BLT2 (Homo sapiens, UniProt Q9NPC1); test: biochemical
# T1 sequence (Q9NPC1 with tags, fused parts or gaps): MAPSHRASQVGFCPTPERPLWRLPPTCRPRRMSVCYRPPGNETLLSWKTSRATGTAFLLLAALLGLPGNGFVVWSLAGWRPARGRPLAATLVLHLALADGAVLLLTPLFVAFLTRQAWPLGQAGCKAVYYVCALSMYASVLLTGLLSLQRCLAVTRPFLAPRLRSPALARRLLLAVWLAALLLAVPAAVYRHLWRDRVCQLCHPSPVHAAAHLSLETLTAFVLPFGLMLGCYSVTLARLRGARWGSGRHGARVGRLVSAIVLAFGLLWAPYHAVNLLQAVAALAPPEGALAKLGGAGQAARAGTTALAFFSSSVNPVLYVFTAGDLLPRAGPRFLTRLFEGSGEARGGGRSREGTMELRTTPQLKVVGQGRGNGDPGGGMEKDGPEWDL
# Experimental: (§2) In addition, in order to prepare stable CHO/BLT2 clones, CHO-K1 cells were transformed with pcDNA3-long form BLT2 encoding HA-tagged human BLT2, and selected with 0.4 mg/ml of G418 (Invitrogen, Carlsbad, Calif., USA).
# BLT1 = biological target: T2, BLT1 (Homo sapiens, UniProt Q15722); test: LTB4-induced chemotactic motility of BLT1-expressing cells (Transwell); format: cell-based; details: CHO-BLT1 cells, LTB4 10 nM
# T2 construct: expressed in transfected cells; host or cells: CHO cells (CHO-BLT1)
# T2 sequence (Q15722 whole entry, species assumed): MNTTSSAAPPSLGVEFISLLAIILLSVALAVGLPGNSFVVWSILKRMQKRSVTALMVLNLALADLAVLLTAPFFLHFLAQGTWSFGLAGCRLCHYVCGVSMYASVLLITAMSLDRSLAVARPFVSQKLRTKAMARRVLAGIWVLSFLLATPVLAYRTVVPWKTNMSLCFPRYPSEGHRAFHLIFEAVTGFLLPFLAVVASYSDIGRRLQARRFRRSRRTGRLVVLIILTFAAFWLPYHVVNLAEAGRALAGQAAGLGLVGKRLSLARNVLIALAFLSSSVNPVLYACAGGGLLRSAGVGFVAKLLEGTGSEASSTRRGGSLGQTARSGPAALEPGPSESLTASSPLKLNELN
# Experimental: (§3) Chemotactic motility was analyzed using a Transwell chamber including a polycarbonate filter (8-μm pore size, Corning Costar) with a 6.5-mm diameter. Specifically, the lower surface of the filter was coated with 10 μg/mL fibronectin in a serum-free RPMI 1640 medium at 37° C. for 1 hour. The experiment was performed by placing the filter dried and coated with RPMI 1640 media containing various amounts of LTB4 in the lower wells of the Transwell chamber, and loading CHO cells, which stably express both BLT1 and BLT2, into the upper wells containing serum-free RPMI 1640 media finally at 2×10^4 cells/100 μL. To evaluate the effect of inhibitors, the cells were pre-treated with each inhibitor for 30 minutes before dispensing. After the cells were cultured at 37° C. in 5% CO2 for 3 hours, the filters were fixed with methanol for 3 minutes, and stained with hematoxylin and eosin for 10 minutes. […] The chemotactic motility was quantitatively analyzed by counting the cells on the lower side of the filter under an optical microscope (magnification, 200×). For each analysis, 6 fields were subjected to counting, each sample was analyzed twice, and the analysis was repeated three times.
# interleukin-4 (IL-4) = test: IL-4 production in severely asthma-induced mice; format: in vivo; details: severely asthma-induced mice (FIG. 8), cells separated from the abdominal cavity, pre-treated (method 5 mg/kg intraperitoneally)
# Description: as §1, with “The administration of the airway constrictor was performed by spraying through an inlet of the chamber using an ultrasonic nebulizer for 3 minutes.” left out
# [4] = system: BLT2-expressing cells (CHO-BLT2 cells); test: Inhibition of LTB4-induced growth of BLT2-expressing cells (MTT); format: cell-based, human; details: LTB4 300 nM, 24 hours
# Experimental: Cell viability according to treatment of the compounds prepared in the examples were measured by a 3-(4,5-dimethylthiazol-2-yl)-2,5-diphenyltetrazolium bromide (MTT) method.
# More specifically, 1×10^4 each of the BLT2-nonexpressing cells (CHO-pcDNA3.1 cells) and BLT2-expressing cells (CHO-BLT2 cells), which were prepared in Experimental Example 1, were dispensed in a […], and cultured for 24 hours. Afterward, the culture medium was removed, a serum-free RPMI medium was added, and after two hours, the cells were pre-treated with each of the compound prepared in one of the examples (10 μM), 10 μM DMSO (compound solvent) as a control, and 10 μM of 1-[5-ethyl-2-hydroxy-4-[[6-methyl-6-(1H-tetrazol-5-yl)heptyl]oxy]phenyl]-ethanone (LY255283; Cayman) as a positive control for 1 hour. Subsequently, after treatment of LTB4 (300 nM), the cells were cultured for 24 hours. 20 μL of an MTT solution (5 mg/mL, Sigma-Aldrich) was added to each well, the cells were cultured in a humid CO2 incubator at 37° C. for 4 hours, and then the supernatant was removed, and 200 μL of DMSO was added to each well to dissolve insoluble violet formazan crystals. Absorbance was measured using a microplate reader (Molecular Devices, Sunnyvale, Calif.) at 550 nm, and the measurement was repeated three times.
# BLT2 [5] = biological target: T1, BLT2; test: LTB4-induced BLT2-dependent chemotactic motility (Transwell); format: cell-based; design: expressed in transfected cells; details: CHO-BLT2 cells, LTB4 300 nM
# Experimental: as §2, §3
# [6] = severely asthma-induced mice (FIG. 7), airway constrictor 50 mg/ml, pre-treated (method 5 mg/kg intraperitoneally)
compound,measurement,setting,value
"CCCCC(=O)N(Cc1ccc(-c2ccc(O)cc2)cc1)c1cccc(F)c1 [AC-1070, N-(3-fluorophenyl)-N-((4′-hydroxybiphenyl-4-yl)methyl)pentaneamide]",death of cancer cells on co-treatment with cisplatin,[1],highly increase
"CCCCC(=O)N(Cc1ccc(-c2ccc(C(=O)O)cc2)cc1)c1ccc(F)cc1 [AC-1072, 4′-((N-(4-fluorophenyl)pentaneamido)methyl)biphenyl-4-carboxylic acid]",death of cancer cells on co-treatment with cisplatin,[1],highly increase
"CCCCC(=O)N(Cc1ccc(-c2ccc(OCC(=O)O)cc2)cc1)c1ccccc1 [AC-1073, 2-(4′-((N-phenylpentaneamido)methyl)biphenyl-4-yloxy)acetic acid]",death of cancer cells on co-treatment with cisplatin,[1],highly increase
"CCCCC(=O)N(Cc1ccc(-c2ccc(OCC(=O)O)cc2)cc1)c1cccc(F)c1 [AC-1074, 2-(4′-((N-(3-fluorophenyl)pentaneamido)methyl)biphenyl-4-yloxy)acetic acid]",change in chemotactic motility compared with LPA (DMSO+),[2]; 10 μM pre-treatment,no change
same,AHR reduced,"asthma-induced mice; asthma-induced mice (FIG. 6), airway constrictor methacholine 50 mg/ml, pre-treated (printed 10 μM; method 5 mg/kg intraperitoneally)",42%
same,AHR reduced,asthma-induced mice; [6],59%
same,IC50,BLT2 [3],140 nM
same,death of cancer cells on co-treatment with cisplatin,[1],highly increase
same,change in chemotactic motility compared with LTB4 (DMSO+),BLT1; 10 μM pre-treatment,no change
same,production of IL-4 reduced,interleukin-4 (IL-4),35.5%
"CCCCC(=O)N(Cc1ccc(-c2ccc(OC)cc2)cc1)c1cccc(F)c1 [AC-1646, N-(3-fluorophenyl)-N-((4′-methoxybiphenyl-4-yl)methyl) pentaneamide]",growth inhibitory effect,[4]; compound 10 μM pre-treated 1 hour,72.1%
"CCCCC/C=C\C[C@@H](O)/C=C/C=C/C=C\[C@@H](O)CCCC(=O)O [LTB4, leukotriene B4, reference compound]",chemotactic motility increase compared with ethanol (DMSO−),BLT2 [5],2.9 times
same,chemotactic motility increase compared with ethanol (DMSO−),BLT1,2.8 times
"CCc1cc(C(C)=O)c(O)cc1OCCCCCC(C)(C)c1nnn[nH]1 [LY255283, 1-[5-ethyl-2-hydroxy-4-[[6-methyl-6-(1H-tetrazol-5-yl)heptyl]oxy]phenyl]-ethanone, reference compound]",AHR reduced,asthma-induced mice; [6],69.2%
same,chemotactic motility compared with those treated with the ligand LTB4,BLT2 [5]; 10 μM pre-treatment,90%
same,death of cancer cells on co-treatment with cisplatin,[1],increased
same,cell growth compared with control DMSO,[4]; pre-treated with 10 μM,approximately 90%
same,production of IL-4 reduced,interleukin-4 (IL-4),67.2%
"lysophosphatidic acid [LPA, reference compound]",chemotactic motility increase compared with ethanol (DMSO−),[2],3.4 times
